Experimental data published in publication PMC3392958, “Assay Format as a Critical Success Factor for Identification of Novel Inhibitor Chemotypes of Tissue-Nonspecific Alkaline Phosphatase from High-Throughput Screening” (Molecules, 2010).
Where two headings read alike, the source gives them in different places.

Tests used:
TNAP [1] = target: T1, TNAP (Homo sapiens, UniProt P05186); assay: TNAP colorimetric assay (pNPP substrate, OD405, 1M DEA); type: biochemical; settings: unit not given in Table 8; n=6; read-out: TNAP-Color
T1 construct: made in house; host or cells: COS-1 cells, transient expression; dialyzed serum-free conditioned medium
T1 sequence (P05186 18-501 limits assumed): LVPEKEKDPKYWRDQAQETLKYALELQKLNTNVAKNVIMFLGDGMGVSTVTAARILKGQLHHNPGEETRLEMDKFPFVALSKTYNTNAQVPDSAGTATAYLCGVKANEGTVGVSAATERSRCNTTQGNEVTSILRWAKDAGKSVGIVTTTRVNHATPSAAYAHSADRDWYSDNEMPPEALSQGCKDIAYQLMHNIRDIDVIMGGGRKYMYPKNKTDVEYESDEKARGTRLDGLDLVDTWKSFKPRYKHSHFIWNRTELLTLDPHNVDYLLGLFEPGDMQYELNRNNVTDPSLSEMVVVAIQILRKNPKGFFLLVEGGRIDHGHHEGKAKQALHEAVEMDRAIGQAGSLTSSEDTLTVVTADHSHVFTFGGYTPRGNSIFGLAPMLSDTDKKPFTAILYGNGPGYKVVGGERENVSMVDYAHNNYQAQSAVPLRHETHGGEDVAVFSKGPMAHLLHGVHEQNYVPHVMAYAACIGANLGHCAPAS
Method: The colorimetric TNAP assay was performed as previously described with slight modifications.

TNAP [2] = target: T1, TNAP; assay: TNAP luminescent assay (CDP-star substrate, 100 mM DEA); type: biochemical
Method: (§1) Development of the novel luminescent TNAP assay using CDP-star substrate and detailed protocol of its application for HTS is described in more detail elsewhere. […] Briefly, the assay was 50 μM CDP-star substrate in assay buffer containing 100 mM DEA-HCl (pH 9.8), 1 mM MgCl2, and 20 μM ZnCl2. The luminescence signal was measured after a 30-min incubation at room temperature on an EnVision plate reader (PerkinElmer, Waltham, MA). […] Detailed protocols can be found in the respective AIDs, however, the final buffer conditions were 100 mM DEA, pH 9.8, 1.0 mM MgCl2, 0.02 mM ZnCl2 for both PLAP and IAP.

human PLAP = target: T2, human PLAP (Homo sapiens, UniProt P05187); assay: PLAP luminescent assay (CDP-star); type: biochemical
T2 construct: made in house; host or cells: COS-1 cells, transient expression; dialyzed serum-free conditioned medium
Method: (§2) Selectivity of Primary Actives Against other Phosphatases: To assess the selectivity of compounds across the alkaline phosphatase family, luminescent assays were developed for human PLAP and human IAP with the same CDP-Star reagent.
as §1

IAP [3] = target: T3, IAP (Homo sapiens, UniProt P09923); assay: IAP luminescent assay (CDP-star); type: biochemical
T3 construct: made in house; host or cells: COS-1 cells, transient expression; dialyzed serum-free conditioned medium
T3 sequence (P09923 20-503 limits assumed): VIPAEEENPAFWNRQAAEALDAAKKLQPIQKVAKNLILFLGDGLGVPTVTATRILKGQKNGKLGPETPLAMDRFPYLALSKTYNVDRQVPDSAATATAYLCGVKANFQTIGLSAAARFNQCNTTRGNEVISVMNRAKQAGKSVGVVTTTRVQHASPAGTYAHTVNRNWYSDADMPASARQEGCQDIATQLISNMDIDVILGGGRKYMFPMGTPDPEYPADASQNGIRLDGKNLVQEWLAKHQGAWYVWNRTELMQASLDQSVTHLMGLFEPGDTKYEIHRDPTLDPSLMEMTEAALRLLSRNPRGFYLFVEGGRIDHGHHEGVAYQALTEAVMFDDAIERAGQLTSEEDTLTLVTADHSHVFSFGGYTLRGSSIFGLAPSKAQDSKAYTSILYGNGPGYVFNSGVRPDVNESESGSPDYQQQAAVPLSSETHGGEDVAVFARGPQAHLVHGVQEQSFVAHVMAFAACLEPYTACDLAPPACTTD
Method: as §2, §1

IAP [4] = target: T3, IAP; assay: IAP colorimetric assay (pNPP); type: biochemical; settings: unit not given in Table 8; n=7; read-out: IAP-Color
Method: (§3) An additional sub-micromolar IAP assay using p-nitrophenol phosphate (pNPP) as substrate was developed at the CPCCG and was utilized for hit confirmation. Lead compounds were tested in a panel of assays consisting of: (1) TNAP luminescent assay (substrate: CDP-star); (2) TNAP colorimetric assay (substrate: pNPP); (3) PLAP luminescent assay (substrate: CDP-star); (4) IAP luminescent assay (substrate: CDP-star); (5) IAP colorimetric assay (substrate: pNPP); (6) solubility and (7) glyceraldehyde-3-phosphate dehydrogenase (GAPDH) assay. The latter two assays are designed to identify compounds that are likely to interfere with the assay components and would appear as non-specific inhibitors. Our approach to exploring the SAR for the IAP inhibitor series is shown graphically in Figure 8.

[5] = Solubility in aqueous solutions; type: physicochemical; settings: read-out: concentrations at which compound is soluble
Method: as §3
The National Institutes of Health (NIH) Molecular Libraries Small Molecule Repository (MLSMR, http://www.mli.nih.gov/mlsmr) supplied the compound library. […] MLSMR compounds are acquired from commercial and in part from academic and government sources and are selected based on the following criteria: samples are available for resupply in 10-mg quantity, are at least 90% pure, have acceptable physicochemical properties, and contain no functional groups or moieties that are known to generate artifacts in HTS (http://mlsmr.glpg.com/). […]

GAPDH = GAPDH (Homo sapiens, UniProt P04406); assay: Glyceraldehyde-3-phosphate dehydrogenase (GAPDH) assay; type: biochemical
Method: as §3
The National Institutes of Health (NIH) Molecular Libraries Small Molecule Repository (MLSMR, http://www.mli.nih.gov/mlsmr) supplied the compound library. The MLSMR, funded by the NIH, is responsible for the selection of small molecules for HTS screening, their purchase and quality control (QC) analysis, library maintenance, and distribution within the NIH Molecular Libraries Screening Center Network (MLSCN, http://www.mli.nih.gov/mlscn). Both MLSMR and MLSCN are parts of the Molecular Libraries Initiatives (MLI, http://nihroadmap.nih.gov/molecularlibraries) under the NIH Roadmap Initiatives (www.nihroadmap.nih.gov). MLSMR compounds are acquired from commercial and in part from academic and government sources and are selected based on the following criteria: samples are available for resupply in 10-mg quantity, are at least 90% pure, have acceptable physicochemical properties, and contain no functional groups or moieties that are known to generate artifacts in HTS (http://mlsmr.glpg.com/). Compounds are selected to represent diversified chemical space with clusters of closely related analogs around them to aid in the HTS-based structure-activity relationship (SAR) analysis. […]

[6] = design: method as in PubChem; settings: assays deposited in PubChem; ref PubChem; cited from earlier work
CYP2C19 = tested on: CYP2C19; design: method as in PubChem; settings: @ 5 µM; ref PubChem; cited from earlier work
CYP2C9 = tested on: CYP2C9; design: method as in PubChem; settings: @ 5 µM; ref PubChem; cited from earlier work
[7] = Stability in rat liver microsomes (RLM); type: in vitro ADME; settings: 20-minute incubation
[8] = tested on: primary calvarial osteoblast cultures; assay: Calcification in primary calvarial osteoblast cultures; type: cell-based, mouse; settings: 30 µM, osteoblasts of WT mice cultured 19 days
Method: Figure 5 Suppression of calcification by CID-2931238 in primary calvarial osteoblast cultures. Osteoblasts from calvaria bones of WT mice were cultured for 19 days. Media supplemented with 50 µg/mL ascorbic acid and 10 mM β-glycerophosphate were renewed every second or third day (total seven medium changes). The concentration of each compound was maintained at 30 µM. RAU = relative absorbance units.

TNAP [9] = target: T1, TNAP; design: method as in PMID 17638573; settings: existing inhibitors of TNAP; read-out: TNAP- Color Ki; cited from earlier work

T2 sequence (P05187 23-506 limits assumed): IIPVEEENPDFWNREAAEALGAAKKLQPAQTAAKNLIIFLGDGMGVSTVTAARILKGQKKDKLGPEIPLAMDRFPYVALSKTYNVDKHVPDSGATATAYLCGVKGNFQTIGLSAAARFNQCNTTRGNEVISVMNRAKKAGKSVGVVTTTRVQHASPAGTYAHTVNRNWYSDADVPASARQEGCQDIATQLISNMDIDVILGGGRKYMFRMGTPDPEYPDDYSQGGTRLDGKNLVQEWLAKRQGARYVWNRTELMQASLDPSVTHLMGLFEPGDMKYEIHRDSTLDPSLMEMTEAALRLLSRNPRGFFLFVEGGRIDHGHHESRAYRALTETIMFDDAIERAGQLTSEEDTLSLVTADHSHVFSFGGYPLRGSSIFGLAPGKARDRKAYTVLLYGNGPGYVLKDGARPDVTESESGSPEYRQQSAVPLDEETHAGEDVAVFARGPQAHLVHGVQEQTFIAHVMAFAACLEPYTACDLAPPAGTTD
Sequence of GAPDH (P04406 whole entry, species assumed): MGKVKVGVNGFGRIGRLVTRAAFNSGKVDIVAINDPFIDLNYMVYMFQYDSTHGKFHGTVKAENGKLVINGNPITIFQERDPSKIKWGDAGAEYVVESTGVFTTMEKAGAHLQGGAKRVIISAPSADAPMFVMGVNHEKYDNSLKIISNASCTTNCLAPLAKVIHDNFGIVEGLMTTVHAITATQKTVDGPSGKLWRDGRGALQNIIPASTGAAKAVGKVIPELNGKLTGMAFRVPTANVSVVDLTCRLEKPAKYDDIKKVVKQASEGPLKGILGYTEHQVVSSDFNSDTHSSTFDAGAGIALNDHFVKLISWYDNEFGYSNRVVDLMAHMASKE

Q: Which results are given for O=C1C2CC=CCC2C(=O)N1c1nc(-c2ccccc2)n[nH]1 (stereo not shown) [CID-2946732]?
A: IC50 (TNAP [1]): > 100000 nM; IC50 (TNAP [2]; phtalimide triazole series, read-out: IC50 TNAP- Lumi): 800 nM; IC50 (TNAP [2]; unit not given in Table 8, n=7, read-out: TNAP-Lumi): 795 nM; IC50 (human PLAP; unit not given in Table 8, n=3, read-out: PLAP-Lumi): 4810 nM; mode of IAP inhibition versus the CDP-star substrate (IAP [3]): non-competitive; potency relative to all other existing small-molecule inhibitors of IAP (IAP [3]): > 6,500 fold; selectivity for IAP over TNAP (IAP [3]): 7 fold; IC50 (IAP [3]; phtalimide triazole series, read-out: IC50 IAP-Lumi): 120 nM; IC50 (IAP [3]; unit not printed in Table 8 ([…]), n=7, read-out: IAP-Lumi): 122 nM; IC50 (IAP [4]): 1380 nM; solubility [5]: < 25 µM; effect on GAPDH activity (GAPDH): no effect; cytotoxicity [6]: no cytotoxicity; 2C19 (CYP2C19): 79.6% I @; 2C9 (CYP2C9): 92.5% I @

Q: Which “inhibition of PLAP” value (human PLAP; at or below 100 µM) does the source give for COc1ccc(OC)c(S(=O)(=O)Nc2cnc3ccccc3c2)c1 [MLS-0038949] here?
A: Its value is “did not show any inhibition”.

Q: What about the IC50 (human PLAP; read-out: Selectivity Panel IC50 PLAP) of the same compound?
A: Its IC50 is > 100000 nM.

Q: What about the “inhibition of IAP” value (IAP [3]; at or below 100 µM) of the same compound?
A: Its value is “did not show any inhibition”.

Q: What about the IC50 (IAP [3]; read-out: Selectivity Panel IC50 IAP) of the same compound?
A: Its IC50 is > 100000 nM.

Q: What about the solubility [5] of the same compound?
A: The solubility was < 25 µM.

Q: What about the “effect on GAPDH activity” value (GAPDH) of the same compound?
A: The value was “no effect”.

Q: And the “compound remaining in rat liver microsomes” value [7]?
A: The value was “virtually all-of-the compound remained”.

Q: What about the inhibition of mineralization [8] of the same compound?
A: The inhibition of mineralization was “completely inhibited mineralization”.

Q: What about the cytotoxicity [6] of the same compound?
A: Its cytotoxicity is “no cytotoxicity”.

Q: Which results are given for O=C(NCCO)c1cc(-c2ccc(Cl)c(Cl)c2Cl)n[nH]1 [MLS-0146291]?
A: selectivity index against the closest counter-targets (PLAP, GAPDH) (TNAP [2]): > 2,000 fold; IC50 (TNAP [2]; TNAP, read-out: IC50 (Figure 6, pyrazole series optimization)): 5 nM; IC50 (TNAP [2]; read-out: TNAP IC50, luminescent assay): 5.19 nM; inhibition of PLAP (human PLAP; at or below 10 µM): did not show any inhibition; inhibition of GAPDH (GAPDH; at or below 10 µM): did not show any inhibition

Q: For O=C(c1ccccc1)C(Sc1nnc[nH]1)c1ccccc1 (stereo not shown) [MLS-5361418], which Ki (TNAP [9]) is on record?
A: The Ki was 5600 nM.

Q: For Cn1cnnc1Sc1nc(Nc2ccccc2)nc(Nc2ccccc2)n1 [MLS-5804079], which Ki (TNAP [9]) is on record?
A: Its Ki is 6500 nM.
